Results taken from patent EP0217372A2, “Polyoxygenated labdane derivatives, process for their preparation and their use as medicaments” (HOECHST AKTIENGESELLSCHAFT, priority 1985, dated 1987).
Values after ≈ are worked out from the molar mass of the structure shown. Counter-ions that a name gives are not always drawn. Like-named read-outs stand apart in the source and are kept apart here.

What was measured:
Meerschweinchen-Vorhof = assay: Electrically stimulated left atrium, contractile force; details: contractile force of electrically stimulated left atrium, recorded 7 to 10 min
Source text: 2. Elektrisch stimulierter linker Vorhof
Es wird ein Meerschweinchen männlichen oder weiblichen Geschlechts mit einem Gewicht von 400 g getötet, das Herz entnommen und bei Zimmertemperatur in Ringerlösung eingebracht. Dann wird der linke Vorhof isoliert, an einem Organhalter befestigt und das Präparat in ein Organbad mit Ringerlösung von Zimmertemperatur gebracht. In das Organbad wird ein lebhafter Strom eines Gemisches von Kohlendioxid und Sauerstoff (95 % 02 und 5 % C02) geleitet. Dann wird der linke Vorhof elektrisch stimuliert. Anschließend wird aus einer der erfindungsgemäßen Verbindungen oder ih- rem Salz gegebenenfalls unter Verwendung von stöchiometrischer wäßriger 0,1 n HC1-Lösung eine wäßrige Lösung bekannter Konzentrationen hergestellt.
Diese Lösung wird dem Bad zugesetzt und die Kontraktionskraft des Vorhofes 7 bis 10 Minuten lang auf einem 4-Kanal-Kohden-Rekorder registriert. Die Wirkung wird aus den ermittelten Daten als EC50 berechnet angegeben.

[1] = tested on: Isoliertes Meerschweinchenherz; assay: Isolated guinea pig heart (Langendorff method); parameters: species or system Meerschweinchen; details: Cavia porcellus; for activation at 0.03 mg: Dosis 30 µg injected into the aorta; for activation at 0.01 mg: Dosis 10 µg injected into the aorta
Source text: 1. Isoliertes Meerschweinchenherz (Langendorff-Methode)
Es wird ein Meerschweinchen männlichen oder weiblichen Geschlechts mit einem Gewicht zwischen 300 und 400 g getötet und das Herz mit einem kleinen Teil der Aorta entnommen. Das Herz wird umgehend in einen Perfusionsapparat gebracht, in dem die Aorta auf der Glaskanüle fixiert wird. Die aus oxygenierter Ringerlösung bestehende Perfusionslösung wird bei konstantem Druck aus dem Behälter zugeführt, der durch aus dem Thermostat zirkulierendes Wasser auf 37°C angewärmt wird. Die zu untersuchenden Verbindungen der Erfindung werden zur Herstellung einer Lösung mit bekannter Konzentration unter Verwendung stöchiometrischer 0,1 n HC1 bzw. deren Salze direkt in Wasser gelöst. Die erhaltene Lösung wird durch eine Polyäthylenkanüle direkt in die Aorta injiziert und die Wirkungen auf die Kontraktionskraft, Herzfrequenz und Koronardurchblutung auf einem 3-Kanal-Physioscribe-Rekorder aufgezeichnet. Die prozentuale Zu- oder Abnahme der inotropen Wirkung wird nach dem intialen Ausgangswert berechnet.

Narkotisierter Hund = assay: In vivo test in the anaesthetised dog (left ventricular dp/dt max); parameters: species or system Beagle-Hunde; details: injected into the femoral vein, pentobarbital anaesthesia; for ED50: Canis lupus familiaris, iv
Procedure: 3. In vivo-Tests am narkotisierten Hund
Beagle-Hunde beiderlei Geschlechts mit einem Gewicht zwischen 10 und 15 kg werden mit Na-Pentobarbitol (35 mg/kg, i.v.) narkotisiert. Nach Einführen eines Endotrachealtubus werden die Femoralarterie und -vene mit einer Kanüle zur Messung des Blutdrucks bzw. zur Verabreichung von Medikamenten versehen. Der Druck des linken Ventrikels wird mit Hilfe eines Millar-Katheters gemessen und dp/dt max wird berechnet mit einem Hugo-Sachs-Differentiometer. Die Herzfrequenz wird mit Hilfe eines Kardiotachometers aus ECG-Signalen bestimmt. Alle kontinuierlich gemessenen Parameter werden mit einem Hellige-Sechs-Kanal-Recorder aufgezeichnet.
Die zu untersuchenden erfindungsgemäßen Verbindungen werden in destilliertem Wasser gelöst. In allen Experimenten werden 1%ige Lösungen verwendet. Die Lösungen werden in die Femoralvene injiziert und die Dosis-Wirkung-Relation berechnet.

Augeninnendruck (IOP) = assay: Intraocular pressure in the conscious rabbit; type: in vivo, Kaninchen; details: for Senkung des IOP: percent decrease from baseline; for Dauer: duration of the IOP-lowering effect
Source text: Messung des Augeninnendruckes am wachen Kaninchen
Für die Untersuchung wird ein männliches oder weibliches Kaninchen mit einem Gewicht von 2 bis 3 k^g ausgewählt. Der Augeninnendruck (IOP) wird nach vorheriger Hornhautanästhesie mit 2 % Novocain-Lösung mit einem Schioetz-Tonometer gemessen. Zur Herstellung einer 2 %igen wäßrigen Lösung wird eine Verbindung der Formel I unter Verwendung von stöchiometrischer wäßriger 0,1 n HCI-Lösung oder ein Salz einer solchen Verbindung direkt in Wasser gelöst. […] Der IOP wird in Abständen von 0,5, 1, 2, 3, 4 und 5 Stunden gemessen. Die prozentuale Abnahme des IOP wird anhand des Ausgangswertes berechnet.

systolischer Blutdruck = assay: Blood pressure lowering in conscious spontaneously hypertensive rats (tail cuff); type: in vivo, SH-Ratten; details: 25 mg/kg oral once daily for 5 days; difference from baseline, 2 hours after dosing
Source text: Blutdrucksenkung bei wachen hypertonen Ratten
Die blutdrucksenkende Wirkung wird bei wachen Ratten mit spontaner Hyperonie (SH) ermittelt. Eingesetzt werden dazu männliche SH-Ratten (250 - 300 g, 12 - 16 Wochen alt) des Wistar-Okamoto-Stammes aus eigener Züchtung. Vor der Blutdruckmessung werden die Ratten 10 Minuten bei 37'C in einer Wärmekammer aufgewärmt. Der systolische Blutdruck wird bei den wachen Ratten mittels Schwanzmanschetten-Methode gemessen, wobei ein piezoelektrischer Kristall zur Anzeige des Druckpulses, ein aneroides Manometer zur Druckmessung und ein Kardioskop (BPL-India) zur Anzeige des Verschwindens und/oder Auftretens des Druckpulses verwendet wird.
Die zu testenden erfindungsgemäßen Verbindungen werden unter Verwendung von stöchiometrischer 0,1 n HCl-Lösung bzw. die Salze direkt in Wasser gelöst und in dieser Form den SH-Ratten 5 Tage lang einmal täglich in einer Dosierung von 25 mg/kg oral verabreicht. Eine Gruppe dient als Kontrolle und erhält das Vehikel. Der systolische Blutdruck wird vor der ersten Verabreichung des Medikamentes und 2 Stunden danach registriert. Eine Senkung des systolischen Blutdruckes ist die Differenz zwischen dem Blutdruck nach der Behandlung und dem Ausgangswert.

[2] = read-out: % Zunahme der Chronotropen Wirkung
[3] = read-out: % Zunahme der Koronardurchblutung
[4] = relative to initial baseline, read-out: % Zunahme der Inotropen Wirkung
[5] = Dosis 2 %, 100 µl instilled into one eye

C=CC1(C)CC(=O)C2(O)C(C)(O1)C(O)C(OC(=O)CN1CCCC(C)C1)C1C(C)(C)CCC(O)C12C (stereo not shown)
EC50 (Meerschweinchen-Vorhof): 30 µg/mL (≈ 59.1 µM)

C=CC1(C)CC(=O)C2(O)C(C)(O1)C(OC(=O)CCCCN1CCCCC1)C(O)C1C(C)(C)CCC(O)C12C (stereo not shown)
EC50 (Meerschweinchen-Vorhof): 30 µg/mL (≈ 56 µM)

C=C[C@@]1(C)CC(=O)[C@]2(O)[C@@]3(C)[C@@H](O)CCC(C)(C)[C@@H]3[C@H](O)[C@H](OC(=O)C(C)N3CCOCC3)[C@@]2(C)O1 (stereo partly shown) [the 2nd table, row 3]
activation at 0.03 mg [1, 2]: 32%
activation at 0.03 mg [1, 3]: 44%
activation at 0.03 mg [1, 4]: 20%
Meerschweinchen-Vorhof EC50 (Meerschweinchen-Vorhof): 0,266 µg/ml
Narkotisierter Hund dp/dt max ED50 (Narkotisierter Hund): 0,04 mg/kg

C=C[C@@]1(C)CC(=O)[C@]2(O)[C@@]3(C)[C@@H](O)CCC(C)(C)[C@@H]3[C@H](OC(=O)CN3CCSCC3)[C@H](O)[C@@]2(C)O1
EC50 (Meerschweinchen-Vorhof): 1.5 µg/mL (≈ 2.93 µM)
ED50 (Narkotisierter Hund): > 3 mg/kg

C=CC1(C)CC(=O)C2(O)C(C)(O1)C(OC(=O)Cn1cnc3c1c(=O)n(C)c(=O)n3C)C(O)C1C(C)(C)CCC(O)C12C (stereo not shown)
Senkung des IOP (Augeninnendruck (IOP); [5]): 21%
Dauer (Augeninnendruck (IOP); Dosis 2 %): > 6 Std.

C=C[C@@]1(C)CC(=O)[C@]2(O)[C@@]3(C)[C@@H](O)CCC(C)(C)[C@@H]3[C@H](O)[C@H](OC(=O)CN3CCSCC3)[C@@]2(C)O1
EC50 (Meerschweinchen-Vorhof): 30 µg/mL (≈ 58.6 µM)

C=CC1(C)CC(=O)C2(O)C(C)(O1)C(O)C(OC(=O)CCCCN1CCCCC1)C1C(C)(C)CCC(O)C12C (stereo not shown) [the 4th table, row 5]
EC50 (Meerschweinchen-Vorhof): 30 µg/mL (≈ 56 µM)

C=C[C@@]1(C)CC(=O)[C@]2(O)[C@@]3(C)[C@@H](O)CCC(C)(C)[C@@H]3[C@H](OC(=O)CN3CCC(NC(=O)c4ccccc4)CC3)[C@H](O)[C@@]2(C)O1
EC50 (Meerschweinchen-Vorhof): 1.2 µg/mL (≈ 1.96 µM)

C=C[C@@]1(C)CC(=O)[C@]2(O)[C@@]3(C)[C@@H](O)CCC(C)(C)[C@@H]3[C@H](OC(=O)C(C)N3CCOCC3)[C@H](O)[C@@]2(C)O1 (stereo partly shown)
activation at 0.01 mg [1, 2]: 20%
activation at 0.01 mg [1, 3]: 11%
activation at 0.01 mg [1, 4]: 45%
EC50 (Meerschweinchen-Vorhof): 4.7 µg/mL (≈ 9.22 µM)

C=CC1(C)CC(=O)C2(O)C(C)(O1)C(O)C(OC(=O)CCCCN1CCCCC1)C1C(C)(C)CCC(O)C12C (stereo not shown) [the 5th table, row 7]
Senkung des IOP (Augeninnendruck (IOP); Dosis 1 %): 23%
Dauer (Augeninnendruck (IOP); Dosis 1 %): 6 Std.

C=C[C@@]1(C)CC(=O)[C@]2(O)[C@@]3(C)[C@@H](O)CCC(C)(C)[C@@H]3[C@H](OC(=O)CN3CCOCC3)[C@H](O)[C@@]2(C)O1
activation at 0.03 mg [1, 2]: 34%
activation at 0.03 mg [1, 3]: 35%
activation at 0.03 mg [1, 4]: 23%
EC50 (Meerschweinchen-Vorhof): 0.5 µg/mL (≈ 1.01 µM)
ED50 (Narkotisierter Hund): 0.11 mg/kg

C=C[C@@]1(C)CC(=O)[C@]2(O)[C@@]3(C)[C@@H](O)CCC(C)(C)[C@@H]3[C@H](O)[C@H](OC(=O)CN3CCCC(C)C3)[C@@]2(C)O1 (stereo partly shown)
EC50 (Meerschweinchen-Vorhof): 30 µg/mL (≈ 59.1 µM)

C=CC1(C)CC(=O)C2(O)C(C)(O1)C(OC(=O)C(C)N1CCSCC1)C(O)C1C(C)(C)CCC(OC(=O)C(C)N3CCSCC3)C12C (stereo not drawn) [6β-9α-Dihydroxy, 1α,7β-di(α'-thiomorpholinopropionyloxy)-8,13-epoxy-labd-14-en-one-dihydrochlorid-trihydrat]
Senkung des IOP (Augeninnendruck (IOP); Dosis 1 %): 19%
Dauer (Augeninnendruck (IOP); Dosis 1 %): 6 Std.

C=C[C@@]1(C)CC(=O)[C@]2(O)[C@@]3(C)[C@@H](O)CCC(C)(C)[C@@H]3[C@H](OC(=O)CN3CCC(C)CC3)[C@H](O)[C@@]2(C)O1
EC50 (Meerschweinchen-Vorhof): 2.6 µg/mL (≈ 5.12 µM)
ED50 (Narkotisierter Hund): 0.39 mg/kg

C=CC1(C)CC(=O)C2(O)C(C)(O1)C(O)C(OC(=O)CN1CCCCCC1)C1C(C)(C)CCC(O)C12C (stereo not shown)
EC50 (Meerschweinchen-Vorhof): 1.9 µg/mL (≈ 3.74 µM)

C=C[C@@]1(C)CC(=O)[C@]2(O)[C@@]3(C)[C@@H](O)CCC(C)(C)[C@@H]3[C@H](OC(=O)CN3CCCC3)[C@H](O)[C@@]2(C)O1
EC50 (Meerschweinchen-Vorhof): 3 µg/mL (≈ 6.26 µM)

C=C[C@@]1(C)CC(=O)[C@]2(O)[C@@]3(C)[C@@H](O)CCC(C)(C)[C@@H]3[C@H](O)[C@H](OC(=O)CCN3C(=O)c4ccccc4C3=O)[C@@]2(C)O1
EC50 (Meerschweinchen-Vorhof): > 3 µg/mL

C=CC1(C)CC(=O)C2(O)C(C)(O1)C(O)C(OC(=O)CN(C)C1CCCCC1)C1C(C)(C)CCC(O)C12C (stereo not shown)
Senkung des IOP (Augeninnendruck (IOP); [5]): 27.5%
Dauer (Augeninnendruck (IOP); Dosis 2 %): 6 Std.

C=CC1(C)CC(=O)C2(O)C(C)(O1)C(OC(=O)CN1CCCCC1)C(O)C1C(C)(C)CCC(O)C12C (stereo not shown)
Senkung des systolischen Blutdruckes (systolischer Blutdruck): 35

C=C[C@@]1(C)CC(=O)[C@]2(O)[C@@]3(C)[C@@H](O)CCC(C)(C)[C@@H]3[C@H](O)[C@H](OC(=O)CN3CCCC3)[C@@]2(C)O1
activation at 0.01 mg [1, 2]: 24%
activation at 0.01 mg [1, 3]: 57%
activation at 0.01 mg [1, 4]: 38%
EC50 (Meerschweinchen-Vorhof): 1.8 µg/mL (≈ 3.75 µM)
ED50 (Narkotisierter Hund): 0.5 mg/kg

C=C[C@@]1(C)CC(=O)[C@]2(O)[C@@]3(C)[C@@H](O)CCC(C)(C)[C@@H]3[C@H](O)[C@H](OC(=O)CN3CCCCC3)[C@@]2(C)O1
activation at 0.01 mg [1, 2]: 1%
activation at 0.01 mg [1, 3]: 31%
activation at 0.01 mg [1, 4]: 18%
EC50 (Meerschweinchen-Vorhof): 22 µg/mL (≈ 44.6 µM)

C=CC1(C)CC(=O)C2(O)C(C)(O1)C(OC(=O)Cn1nnc3ccccc31)C(O)C1C(C)(C)CCC(O)C12C (stereo not shown)
EC50 (Meerschweinchen-Vorhof): > 30 µg/mL

C=C[C@@]1(C)CC(=O)[C@]2(O)[C@@]3(C)[C@@H](O)CCC(C)(C)[C@@H]3[C@H](O)[C@H](OC(=O)CN3CCOCC3)[C@@]2(C)O1
activation at 0.01 mg [1, 2]: 35%
activation at 0.01 mg [1, 3]: 100%
activation at 0.01 mg [1, 4]: 37%
EC50 (Meerschweinchen-Vorhof): 0.35 µg/mL (≈ 0.706 µM)

C=C[C@@]1(C)CC(=O)[C@]2(O)[C@@]3(C)[C@@H](O)CCC(C)(C)[C@@H]3[C@H](OC(=O)CN3CCCCC3)[C@H](O)[C@@]2(C)O1
activation at 0.01 mg [1, 2]: 27%
activation at 0.01 mg [1, 3]: 40%
activation at 0.01 mg [1, 4]: 32%
EC50 (Meerschweinchen-Vorhof): 2.3 µg/mL (≈ 4.66 µM)

C=C[C@@]1(C)CC(=O)[C@]2(O)[C@@]3(C)[C@@H](O)CCC(C)(C)[C@@H]3[C@H](O)[C@H](OC(=O)CCCN3CCOCC3)[C@@]2(C)O1
EC50 (Meerschweinchen-Vorhof): 3 µg/mL (≈ 5.73 µM)

C=CC1(C)CC(=O)C2(O)C(C)(O1)C(O)C(O)C1C(C)(C)CCC(OC(=O)CN3CCCCC3)C12C (stereo not shown)
Senkung des IOP (Augeninnendruck (IOP); [5]): 18%
Dauer (Augeninnendruck (IOP); Dosis 2 %): 2 Std.

C=C[C@@]1(C)CC(=O)[C@]2(O)[C@@]3(C)[C@@H](O)CCC(C)(C)[C@@H]3[C@H](O)[C@H](OC(=O)C(C)N3CCOCC3)[C@@]2(C)O1 (stereo partly shown) [the 1st table, row 7]
activation at 0.01 mg [1, 2]: 20%
activation at 0.01 mg [1, 3]: -5%
activation at 0.01 mg [1, 4]: 18%
Meerschweinchen-Vorhof EC50 (Meerschweinchen-Vorhof): 10 µg/mL
ED50 (Narkotisierter Hund): 0.04 mg/kg

C=CC1(C)CC(=O)C2(O)C(C)(O1)C(OC(=O)C(C)n1cnc3c1c(=O)n(C)c(=O)n3C)C(O)C1C(C)(C)CCC(O)C12C (stereo not shown)
EC50 (Meerschweinchen-Vorhof): 0.9 µg/mL (≈ 1.49 µM)

C=CC1(C)CC(=O)C2(O)C(C)(O1)C(O)C(OC(=O)CN1CCCCC1)C1C(C)(C)CCC(O)C12C (stereo not shown)
Senkung des systolischen Blutdruckes (systolischer Blutdruck): 14
